Our source for the IC50 values is publication PMC7967212, “Vitamin D Compounds PRI-2191 and PRI-2205 Enhance Anastrozole Activity in Human Breast Cancer Models” (International Journal of Molecular Sciences, 2021).

SMILES strings stand for the structures.

The assay concerns the target T1, aromatase (CYP19) (Homo sapiens, UniProt P11511).
T1 construct: gene CYP19A1
T1 sequence (P11511 1-503): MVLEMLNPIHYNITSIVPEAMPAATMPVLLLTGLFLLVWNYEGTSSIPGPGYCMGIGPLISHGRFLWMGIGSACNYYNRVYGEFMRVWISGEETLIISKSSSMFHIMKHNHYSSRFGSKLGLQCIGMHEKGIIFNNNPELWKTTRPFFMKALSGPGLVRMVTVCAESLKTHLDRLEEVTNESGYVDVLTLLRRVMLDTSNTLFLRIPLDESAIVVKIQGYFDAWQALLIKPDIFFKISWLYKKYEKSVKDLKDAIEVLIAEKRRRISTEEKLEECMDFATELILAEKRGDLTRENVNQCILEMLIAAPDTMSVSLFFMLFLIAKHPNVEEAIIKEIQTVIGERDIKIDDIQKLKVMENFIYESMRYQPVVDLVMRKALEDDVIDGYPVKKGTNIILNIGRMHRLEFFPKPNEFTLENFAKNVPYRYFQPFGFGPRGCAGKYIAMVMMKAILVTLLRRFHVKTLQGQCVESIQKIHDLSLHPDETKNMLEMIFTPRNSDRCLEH
The experiment in a line: CYP19/MFC High Throughput Inhibitor Screening Kit (Corning No. […]), fluorogenic enzyme inhibition. The format is biochemical.

For `C=C1/C(=C\C=C2/CCC[C@]3(C)[C@@H]([C@H](C)CC[C@@H](O)C(C)C)CC[C@@H]23)C[C@@H](O)C[C@@H]1O` [PRI-2191], half-maximal inhibition (IC50) required 152 ± 30.5 nM.

A word on the IC50: it is the concentration needed to halve the response being measured. Low readings indicate greater potency in that assay, high ones weaker potency in that assay.
